The NIST ThermoML archive (doi:10.1021/je400055v)
Numbers after ± are expanded uncertainties.

Assay: xn = mol fraction of the nth substance listed
Conditions: Liquid, Vibrating tube method, x1 = 0.4891

Cc1cccc(O)c1 [3-methylphenol] + Cc1ccccc1O
Conditions | mass density [kg/m3]
313.19 K, 103.35 kPa | 1023.8 ± 0.5
313.19 K, 206.8 kPa | 1024.3 ± 0.5
313.19 K, 308.94 kPa | 1024.9 ± 0.5
313.19 K, 406.72 kPa | 1025.5 ± 0.5
313.19 K, 509.16 kPa | 1026 ± 0.5
313.19 K, 609.17 kPa | 1026.6 ± 0.5
313.19 K, 710.69 kPa | 1027.1 ± 0.5
313.19 K, 813.34 kPa | 1027.7 ± 0.5
313.19 K, 912.33 kPa | 1028.3 ± 0.5
313.19 K, 1014.1 kPa | 1028.8 ± 0.5
313.19 K, 1115.4 kPa | 1029.3 ± 0.5
313.19 K, 1219.9 kPa | 1029.9 ± 0.5
313.19 K, 1317.7 kPa | 1030.4 ± 0.5
313.19 K, 1421.7 kPa | 1031 ± 0.5
313.19 K, 1522.3 kPa | 1031.5 ± 0.5
313.19 K, 1625.4 kPa | 1032.1 ± 0.5
313.19 K, 1723.2 kPa | 1032.6 ± 0.5
313.19 K, 1824.4 kPa | 1033.1 ± 0.5
313.19 K, 1926.4 kPa | 1033.6 ± 0.5
313.19 K, 2026.8 kPa | 1034.1 ± 0.5
313.19 K, 2129.3 kPa | 1034.7 ± 0.5
313.19 K, 2229.4 kPa | 1035.2 ± 0.5
313.19 K, 2333 kPa | 1035.7 ± 0.5
313.19 K, 2433.2 kPa | 1036.2 ± 0.5
313.19 K, 2532.9 kPa | 1036.7 ± 0.5
323.14 K, 101.12 kPa | 1015.4 ± 0.5
323.14 K, 206.5 kPa | 1016 ± 0.5
323.14 K, 310.87 kPa | 1016.6 ± 0.5
323.14 K, 408.14 kPa | 1017.1 ± 0.5
323.14 K, 510.78 kPa | 1017.8 ± 0.5
323.14 K, 609.67 kPa | 1018.3 ± 0.5
323.14 K, 712.01 kPa | 1018.9 ± 0.5
323.14 K, 812.42 kPa | 1019.5 ± 0.5
323.14 K, 916.79 kPa | 1020.1 ± 0.5
323.14 K, 1012.2 kPa | 1020.6 ± 0.5
323.14 K, 1115.9 kPa | 1021.2 ± 0.5
323.14 K, 1217.9 kPa | 1021.8 ± 0.5
323.14 K, 1321.1 kPa | 1022.4 ± 0.5
323.14 K, 1420.2 kPa | 1022.9 ± 0.5
323.14 K, 1520.1 kPa | 1023.5 ± 0.5
323.14 K, 1622.5 kPa | 1024 ± 0.5
323.14 K, 1723.3 kPa | 1024.6 ± 0.5
323.14 K, 1823.7 kPa | 1025.1 ± 0.5
323.14 K, 1926.1 kPa | 1025.6 ± 0.5
323.14 K, 2028 kPa | 1026.2 ± 0.5
323.14 K, 2128.7 kPa | 1026.7 ± 0.5
323.14 K, 2232.2 kPa | 1027.3 ± 0.5
323.14 K, 2331 kPa | 1027.8 ± 0.5
323.14 K, 2434.8 kPa | 1028.4 ± 0.5
323.14 K, 2533.2 kPa | 1028.9 ± 0.5
333.08 K, 104.06 kPa | 1007 ± 0.5
333.08 K, 209.13 kPa | 1007.6 ± 0.5
333.08 K, 305.29 kPa | 1008.2 ± 0.5
333.08 K, 408.54 kPa | 1008.8 ± 0.5
333.08 K, 507.94 kPa | 1009.4 ± 0.5
333.08 K, 610.79 kPa | 1010.1 ± 0.5
333.08 K, 708.67 kPa | 1010.6 ± 0.5
333.08 K, 812.42 kPa | 1011.3 ± 0.5
333.08 K, 913.04 kPa | 1011.9 ± 0.5
333.08 K, 1015.7 kPa | 1012.5 ± 0.5
333.08 K, 1115.2 kPa | 1013 ± 0.5
333.08 K, 1217.7 kPa | 1013.7 ± 0.5
333.08 K, 1318 kPa | 1014.2 ± 0.5
333.08 K, 1419 kPa | 1014.8 ± 0.5
333.08 K, 1520.9 kPa | 1015.4 ± 0.5
333.08 K, 1624.9 kPa | 1016 ± 0.5
333.08 K, 1724.2 kPa | 1016.6 ± 0.5
333.08 K, 1824.2 kPa | 1017.1 ± 0.5
333.08 K, 1925.9 kPa | 1017.7 ± 0.5
333.08 K, 2031 kPa | 1018.3 ± 0.5
333.08 K, 2132.9 kPa | 1018.9 ± 0.5
333.08 K, 2232.5 kPa | 1019.4 ± 0.5
333.08 K, 2336 kPa | 1020 ± 0.5
333.08 K, 2438 kPa | 1020.6 ± 0.5
333.08 K, 2536.6 kPa | 1021.1 ± 0.5
343.04 K, 103.66 kPa | 998.4 ± 0.5
343.04 K, 208.53 kPa | 999 ± 0.5
343.04 K, 305.8 kPa | 999.7 ± 0.5
343.04 K, 406.72 kPa | 1000.3 ± 0.5
343.04 K, 510.78 kPa | 1001 ± 0.5
343.04 K, 609.67 kPa | 1001.6 ± 0.5
343.04 K, 711.4 kPa | 1002.3 ± 0.5
343.04 K, 812.12 kPa | 1002.9 ± 0.5
343.04 K, 912.13 kPa | 1003.5 ± 0.5
343.04 K, 1014 kPa | 1004.1 ± 0.5
343.04 K, 1115.1 kPa | 1004.8 ± 0.5
343.04 K, 1220.8 kPa | 1005.4 ± 0.5
343.04 K, 1318.1 kPa | 1006 ± 0.5
343.04 K, 1420.7 kPa | 1006.6 ± 0.5
343.04 K, 1520.6 kPa | 1007.2 ± 0.5
343.04 K, 1621 kPa | 1007.9 ± 0.5
343.04 K, 1722.2 kPa | 1008.4 ± 0.5
343.04 K, 1824.6 kPa | 1009.1 ± 0.5
343.04 K, 1925.9 kPa | 1009.7 ± 0.5
343.04 K, 2028.3 kPa | 1010.2 ± 0.5
343.04 K, 2130 kPa | 1010.8 ± 0.5
343.04 K, 2233.9 kPa | 1011.4 ± 0.5
343.04 K, 2330.6 kPa | 1011.9 ± 0.5
343.04 K, 2432 kPa | 1012.5 ± 0.5
343.04 K, 2536.8 kPa | 1013.1 ± 0.5
352.98 K, 105.78 kPa | 990 ± 0.5
352.98 K, 204.88 kPa | 990.6 ± 0.5
352.98 K, 305.29 kPa | 991.3 ± 0.5
352.98 K, 408.64 kPa | 992 ± 0.5
352.98 K, 509.16 kPa | 992.6 ± 0.5
352.98 K, 610.18 kPa | 993.3 ± 0.5
352.98 K, 707.96 kPa | 993.9 ± 0.5
352.98 K, 810.8 kPa | 994.7 ± 0.5
352.98 K, 913.45 kPa | 995.3 ± 0.5
352.98 K, 1013.5 kPa | 996 ± 0.5
352.98 K, 1116.7 kPa | 996.6 ± 0.5
352.98 K, 1217.9 kPa | 997.2 ± 0.5
352.98 K, 1316.1 kPa | 997.9 ± 0.5
352.98 K, 1418 kPa | 998.5 ± 0.5
352.98 K, 1519.3 kPa | 999.1 ± 0.5
352.98 K, 1623.4 kPa | 999.8 ± 0.5
352.98 K, 1723.3 kPa | 1000.4 ± 0.5
352.98 K, 1821.8 kPa | 1001 ± 0.5
352.98 K, 1928 kPa | 1001.7 ± 0.5
352.98 K, 2027.3 kPa | 1002.3 ± 0.5
352.98 K, 2129.3 kPa | 1002.9 ± 0.5
352.98 K, 2237.1 kPa | 1003.5 ± 0.5
352.98 K, 2331.9 kPa | 1004.2 ± 0.5
352.98 K, 2437.8 kPa | 1004.8 ± 0.5
352.98 K, 2536.4 kPa | 1005.4 ± 0.5
362.91 K, 106.69 kPa | 981.5 ± 0.5
362.91 K, 203.97 kPa | 982.2 ± 0.5
362.91 K, 305.9 kPa | 982.9 ± 0.5
362.91 K, 407.53 kPa | 983.6 ± 0.5
362.91 K, 510.78 kPa | 984.3 ± 0.5
362.91 K, 608.36 kPa | 985 ± 0.5
362.91 K, 708.57 kPa | 985.7 ± 0.5
362.91 K, 811.21 kPa | 986.3 ± 0.5
362.91 K, 912.33 kPa | 987 ± 0.5
362.91 K, 1013.1 kPa | 987.7 ± 0.5
362.91 K, 1114.2 kPa | 988.3 ± 0.5
362.91 K, 1215.1 kPa | 989 ± 0.5
362.91 K, 1318.3 kPa | 989.7 ± 0.5
362.91 K, 1418.7 kPa | 990.3 ± 0.5
362.91 K, 1520.8 kPa | 991 ± 0.5
362.91 K, 1622.2 kPa | 991.7 ± 0.5
362.91 K, 1723.8 kPa | 992.3 ± 0.5
362.91 K, 1825.8 kPa | 993 ± 0.5
362.91 K, 1926.1 kPa | 993.6 ± 0.5
362.91 K, 2030.7 kPa | 994.3 ± 0.5
362.91 K, 2128.7 kPa | 994.9 ± 0.5
362.91 K, 2230.1 kPa | 995.5 ± 0.5
362.91 K, 2332.4 kPa | 996.2 ± 0.5
362.91 K, 2434.6 kPa | 996.8 ± 0.5
362.91 K, 2536.1 kPa | 997.5 ± 0.5
